Source: article PMC4778904, “The Curcumin Analog C-150, Influencing NF-κB, UPR and Akt/Notch Pathways Has Potent Anticancer Activity In Vitro and In Vivo” (PLoS ONE, 2016)

Molecular target: T1, PKC-alpha (Homo sapiens, UniProt P17252)
T1 construct: gene PRKCA
Assay: IMAP-FP kinase activity assay (Proteros selectivity panel), single concentration […], ATP at Km app; […] inhibition
Format: biochemical

C=CC(=O)NC(c1ccccc1)C(C(=O)/C=C/c1cccc(O)c1)C(=O)/C=C/c1cccc(O)c1 (stereo not shown) [compound 3, N-((E)-5-(3-hydroxyphenyl)-2-((E)-3-(3-hydroxyphenyl)acryloyl)-3-oxo-1-phenylpent-4-en-1-yl)acrylamide]
inhibition at 1 µM: 32.8%
